In article PMC2710984 (International Journal of Peptide Research and Therapeutics, 2006):
Several values for one entry are separate records, joined by “and”; a condition that tells them apart may be missing. Identical values can stand only once. Like-named read-outs stand apart in the source and are kept apart here. Square brackets hold non-standard residues; d marks the D form. Ends that are not written are not given here. Peptide text beside a SMILES is read from it. Abu = CC[C@H](N)C(=O)O; Lac = C[C@H](O)C(=O)O

Columns and labels:
[1] = target: XIAP BIR3 (Homo sapiens, UniProt P98170); experiment: Peptide–BIR3 binding assay
[2] = tested on: XIAP BIR3 domain; conditions: ref Nikolovska-Coleska et al., 2004; cited from earlier work
[3] = target: GST–BIR3 (Homo sapiens, UniProt P98170); assay type: biochemical
[4] = IC50, inhibition of Smac–BIR3 interaction, FMAT

Sequence of XIAP BIR3 (P98170 241-356 limits assumed): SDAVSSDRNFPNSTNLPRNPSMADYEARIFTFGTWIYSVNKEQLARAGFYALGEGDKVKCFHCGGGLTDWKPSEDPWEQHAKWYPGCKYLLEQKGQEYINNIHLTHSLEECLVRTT
Sequence of GST–BIR3 (P98170 241-356 limits assumed): as above

Molecule | IC50 [1] | also measured
CC(C)[C@H](NC(=O)[C@H](C)N)C(=O)N1CCC[C@H]1C(N)=O [Compound 5, AVP] (H-Ala-Val-Pro-NH2) | > 10000 nM | 
CC(C)[C@H](NC(=O)[C@@H](N)CO)C(=O)N1CCC[C@H]1C(=O)N[C@@H](Cc1ccccc1)C(N)=O [Compound 10, SVPF] (H-SVPF-NH2) | 1000 nM | 
CC(C)[C@H](NC(=O)[C@H](C)O)C(=O)N1CCC[C@H]1C(=O)N[C@@H](Cc1ccccc1)C(N)=O [Compound 14, Lac–VPF] (H-[Lac]VPF-NH2) | > 1600 nM | 
CC(C)[C@H](NC(=O)[C@H](C)N)C(=O)N1C[C@H](O)C[C@H]1C(=O)N[C@@H](Cc1ccccc1)C(N)=O [Compound 20, AV–Hyp–F] | 1000 nM | 
CCCCCCCCCCCC1=C(O)C(=O)C=C(O)C1=O [Embelin] |  | IC50 [2]: 4.1 µM
AVPFAQK-NH2 [AVPFAQK] |  | IC50 [3]: 2000 nM
AVPIAQ-NH2 [Compound 2, AVPIAQ] |  | IC50 [1, 4]: 270 nM
AVPIAQK-NH2 [Compound 1, AVPIAQK] |  | IC50 [3]: 3000 nM; IC50 [1, 4]: 400 nM and 390 nM

Further molecules by falling IC50 [1], results first:

IC50 [1] | Molecule | also measured
750 nM | CC(C)[C@H](NC(=O)[C@H](C)N)C(=O)N[C@@H](C)C(=O)N[C@@H](Cc1ccccc1)C(N)=O [Compound 6, AVAF] | 
340 nM | CC[C@H](C)[C@H](NC(=O)[C@H](C)N)C(=O)N[C@@H](C)C(=O)N[C@@H](Cc1ccc(O)cc1)C(N)=O [Compound 8, AIAY] (H-AIAY-NH2) | 
300 nM | AVPIA-NH2 [Compound 3, AVPIA] | 
200 nM | C[C@H](N)C(=O)N[C@H](C(=O)N1CCC[C@H]1C(=O)N[C@@H](Cc1ccccc1)C(N)=O)[C@@H](C)O [Compound 17, ATPF] (H-ATPF-NH2) | 
180 nM | CC(C)C[C@H](NC(=O)[C@H](C)N)C(=O)N1CCC[C@H]1C(=O)N[C@@H](Cc1ccccc1)C(N)=O [Compound 15, ALPF] (H-ALPF-NH2) | 
120 nM | CC[C@H](N)C(=O)N[C@H](C(=O)N1CCC[C@H]1C(=O)N[C@@H](Cc1ccccc1)C(N)=O)C(C)C [Compound 9, Abu–VPF] (H-[Abu]VPF-NH2) | 
80 nM | CC[C@H](C)[C@H](NC(=O)[C@H](C)N)C(=O)N1CCC[C@H]1C(=O)N[C@@H](Cc1ccccc1)C(N)=O [Compound 16, AIPF] (H-AIPF-NH2) | 
